Article PMC4109680, “Identification and Preclinical Pharmacology of the γ-Secretase Modulator BMS-869780” (International Journal of Alzheimer's Disease, 2014)
Where two headings read alike, the source gives them in different places.

Assays:
Format in all cases: in vivo
[1] = system: rat brain APP-CTFβ and APP-CTFα; experiment: Immunoprecipitation and western blot of APP-CTFβ and APP-CTFα from rat brain; details: oral doses 1.9-235 mg/kg, 24 hours
Description: Rats were given oral doses of BMS-869780, and levels of brain Aβ, βCTF, and αCTF were determined 24 hours later. For comparison, BMS-698861 was dosed in a separate experiment and samples were taken 5 hours later. (a) Brain levels of Aβ1-42 (red), Aβ1-40 (green), Aβ1-38 (blue), and Aβ1-37 (purple) are shown as bars stacked upon one another. The total height of each bar therefore represents the sum of the four peptides. (b) Aβ1-42 (red—left Y axis) and Aβ1-x (grey—right Y axis). The same results for Aβ1-42 are plotted in both (a) and (b). (c) Rat brain βCTF was detected by western blotting of immunoprecipitates from samples of the same rat brains used for Aβ determinations. V, vehicle groups; results from rats dosed with 1.9, 22, 100, and 235 mg/kg of BMS-869780 and 10 mg/kg BMS-698861 (GSI) are indicated. (d) Western blots of immunoprecipitated αCTF from the same rat brain samples. (e) and (f) quantification of western blots shown in (c) and (d), respectively, expressed relative to percent of average level of CTF in vehicle-treated rats. Actual doses of BMS-869780 were determined by analysis of concentrations in left-over dosing solutions. […]

[2] = Rat time course PK/PD, oral dose, indirect response model; details: female, Sprague-Dawley, plasma
Description: (§1) Figure 8 Analysis of the PK/PD relationship for BMS-869780 in rats and mice. Rats were dosed orally with BMS-869780 at 10 mg/kg, and triple transgenic mice were orally dosed at 30 mg/kg and 100 mg/kg. Additional groups of rats and mice were dosed with vehicle alone. Brain and plasma were harvested at 3, 5, 8, 16, and 24 hours after dosing for determination of brain Aβ1-42 and plasma BMS-869780 concentration. Group sizes were 5 rats or 4 mice. Whiskers represent standard error. […] The data were fit to a one-compartment PK model and the predicted plasma BMS-869780 concentrations are shown for mouse (solid lines) and rat (broken line). […] The data were fitted using the indirect pharmacodynamic response model and predicted values are shown (solid lines). (c) Brain Aβ1-42 levels were determined for the rats dosed with BMS-869780 at 10 mg/kg (▼) or vehicle alone (●). The data were fitted using the indirect pharmacodynamic response model and predicted values are shown (dashed line). (d) Brain Aβ1-40 levels determined in the same rats as illustrated in (c).
(§2) All experimental procedures with animals followed National Institutes of Health guidelines and were authorized by and in compliance with policies of the Bristol-Myers Squibb Animal Use and Care Committee. Mice and rats were housed with a 6:00 AM to 6:00 PM light/dark cycle and allowed free access to food and water. For 3xTg mice, BMS-869780 was dosed in three-month-old females by oral gavage at 6 mL/kg in vehicle consisting of 84% polyethylene glycol average molecular weight of 400 (PEG-400), 15% EtOH, and 1% Tween-80 (w/w/w). The compound was dissolved in EtOH and then diluted with PEG-400 and Tween, after which the vial was sealed, vortexed, and sonicated at 56°C for 1 hour. Animals were euthanized by asphyxiation in CO2. Blood was collected by cardiac puncture and placed into ethylene-diaminetetraacetic acid microtainer tubes for the preparation of plasma. The cerebellum was collected for the determination of compound concentration, and the remaining brain was separated into left and right halves before freezing in liquid nitrogen. For the rat time course study, 8- to 12-week-old female Sprague-Dawley rats were obtained from Charles River Laboratories (Wilmington, MA), BMS-869780 was dosed orally at 4 mL/kg, and brain and plasma samples were collected as described for the 3xTg mice. For the four day repeat dose rat study, BMS-869780 was given by oral gavage in vehicle consisting of PEG-400, PEG-200, D-α-tocopheryl polyethylene glycol succinate, Solutol HS 15, in the ratio 80 : 10 : 5 : 5 (w/w/w/w). Methods for the pharmacokinetics studies in rat, dog, and monkey are described below.
(§3) The data generated in the mouse and rat time course experiments were analyzed sequentially by nonlinear regression (WinNonlin Pharsight Corporation, Mountain View, CA). The pharmacokinetic data were best described by a 1-compartment linear model with first-order absorption and elimination. Subsequently, the pharmacodynamic parameters were estimated from the BMS-869780 plasma concentrations and the observed reductions of brain Aβ1-42 or Aβ1-40 by fitting to the equation for inhibition of synthesis. The goodness-of-fit was determined by visual inspection, Akaike Information Criterion, Schwartz Criterion, examination of the residuals and the coefficient of variation of the parameter estimates.

brain Aβ1-42 = experiment: as above; details: for IC50: po
Description: as §1, §2, §3

[3] = Rat 10 mg/kg PO solution (observed 0–24 hours)

With `COc1cc(Nc2nc3n(n2)CCCC[C@H]3c2ccc(F)cc2)ccc1-n1cnc(Cl)c1` [BMS-869780] the “rat brain APP-CTFβ and APP-CTFα levels” value [1] was “Neither APP-CTFβ nor APP-CTFα levels were affected”, the k el ([2]; oral, 10 mg/kg, rat, 1-compartment PK model) was 2.78e-05 s⁻¹ and the AUC(0-t) [2, 3] was 46.3 µM·h. For the same compound, the “Brain Aβ ABEC 24 hr Aβ1-40” value (brain Aβ1-42; [3]) was 46.1%, the “Brain Aβ ABEC 24 hr Aβ1-42” value (brain Aβ1-42; [3]) was 47.0% and the IC50 (brain Aβ1-42; Rattus norvegicus, read-out: in vivo plasma IC50 for brain Aβ1-42) was 1900 nM. The IC50 (brain Aβ1-42; rat, PD model, read-out: IC50 (plasma concentration required for 50% inhibition of Aβ production)) was 1890 nM, the V/F (brain Aβ1-42; rat) was 1.94 L/kg and the “in vivo IC50 (corrected for protein binding) relative to in vitro IC50 for Aβ1-42” value (brain Aβ1-42; rat and 3xTg mouse, M146V allele taken into account for mouse) was no more than 2 fold. For the same compound, the “Ka1 (10 mg/kg)” value (brain Aβ1-42; rat, 10 mg/kg oral) was 0.19 h⁻¹, the “K in” value (brain Aβ1-42; rat, calculated) was 48 %/h and the “K OUT” value (brain Aβ1-42; rat, rate constant for degradation of Aβ) was 0.48 h⁻¹.
